Laboratory results published in US10144715B2, “Piperazine derivatives as liver X receptor modulators” (priority 2014, dated 2018).
Like-named read-outs stand apart in the source and are kept apart here.

Key:
LXR α LBD protein = LXR α LBD protein (Homo sapiens (Human), UniProt Q13133); test: LXR α radioligand binding assay (SPA, competition with [3H]TO901317); conditions: read-out: LXRα Binding Ki
[1] = biological target: Gal4 DNA binding domain fused to the LBD of LXRα in HEK293 cells (Homo sapiens (Human), UniProt Q13133); test: LXR luciferase transcriptional reporter gene assay, agonist mode, LXRα; type: cell-based
[2] = biological target: Gal4 DNA binding domain fused to the LBD of LXRβ in HEK293 cells (Homo sapiens (Human), UniProt P55055); test: cell-based
[3] = agonist mode, read-out: Cell LXRα EC50
[4] = Biological Test Example 2, agonist mode, read-out: Cell LXRα EC50
[5] = Biological Test Example 2, agonist mode

Chain of Gal4 DNA binding domain fused to the LBD of LXRα in HEK293 cells (Q13133 209-447): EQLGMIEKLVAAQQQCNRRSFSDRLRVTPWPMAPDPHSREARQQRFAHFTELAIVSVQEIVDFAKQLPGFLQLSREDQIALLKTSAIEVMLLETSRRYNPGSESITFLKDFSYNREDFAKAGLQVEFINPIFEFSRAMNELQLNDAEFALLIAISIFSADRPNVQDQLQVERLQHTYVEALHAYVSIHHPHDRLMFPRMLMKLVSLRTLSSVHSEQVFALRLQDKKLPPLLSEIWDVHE
Chain of LXR α LBD protein (Q13133 209-447): as above
Chain of Gal4 DNA binding domain fused to the LBD of LXRβ in HEK293 cells (P55055 222-460 limits assumed): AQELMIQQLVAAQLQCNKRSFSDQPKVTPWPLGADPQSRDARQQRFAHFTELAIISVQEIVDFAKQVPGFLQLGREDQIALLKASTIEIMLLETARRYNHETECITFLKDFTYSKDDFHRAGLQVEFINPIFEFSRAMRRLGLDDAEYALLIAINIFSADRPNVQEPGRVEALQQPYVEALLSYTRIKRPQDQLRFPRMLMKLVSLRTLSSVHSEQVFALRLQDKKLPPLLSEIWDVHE

SMILES | Ki (LXR α LBD protein) [nM] | Cell LXRα efficacy [1] | EC50 [1, 3] [nM] | other results
CC(C)[C@@H]1CN(c2ccc(F)c(S(C)(=O)=O)c2)CCN1C(=O)OC(C)(C)C(F)(F)F [5-2, 1,1,1-trifluoro-2-methylpropan-2-yl (R)-4-(4-fluoro-3-(methylsulfonyl)phenyl)-2-isopropylpiperazine-1-carboxylate] | 163 | 947 (73) % |  | EC50 [1]: 947 nM; EC50 [2]: 111 nM
CC(C)[C@@H]1CN(c2ccc(F)c(S(C)(=O)=O)c2)CCN1C(=O)OC(C)C(F)(F)F (stereo partly drawn) [5-3, 1,1,1-trifluoropropan-2-yl (2R)-4-(4-fluoro-3-(methylsulfonyl)phenyl)-2-isopropylpiperazine-1-carboxylate] | 474 | 1595 (86) % |  | EC50 [1]: 1590 nM; EC50 [2]: 198 nM
CCOC(=O)c1cnc(N2CCN(c3ccc(-c4nc(C(N)=O)cs4)c(S(C)(=O)=O)c3)C[C@H]2C(C)C)nc1C(F)(F)F [9-14, ethyl (R)-2-(4-(4-(4-carbamoylthiazol-2-yl)-3-(methylsulfonyl)phenyl)-2-isopropylpiperazin-1-yl)-4-(trifluoromethyl)pyrimidine-5-carboxylate] | 407 | 3003 (28) % |  | EC50 ([1]; read-out: Cell LXRα EC50): 3000 nM
Cc1nnc(-c2ccc(N3CCN(c4ncc(CO)c(C(F)(F)F)n4)[C@H](C(C)C)C3)cc2S(C)(=O)=O)s1 [11-11, (R)-(2-(2-isopropyl-4-(4-(5-methyl-1,3,4-thiadiazol-2-yl)-3-(methylsulfonyl)phenyl)piperazin-1-yl)-4-(trifluoromethyl)pyrimidin-5-yl)methanol] | 2050 | 3508 (31) % | 3510 | 
CC(C)[C@@H]1CN(c2ccc(-c3nc(C(N)=O)cs3)c(S(C)(=O)=O)c2)CCN1c1ncc(CO)c(C(F)(F)F)n1 [11-13, (R)-2-(4-(4-(5-(hydroxymethyl)-4-(trifluoromethyl)pyrimidin-2-yl)-3-isopropylpiperazin-1-yl)-2-(methylsulfonyl)phenyl)thiazole-4-carboxamide] | 706 | 2145 (52) % | 2150 | 
CC(O)c1cnc(N2CCN(c3ccc(F)c(S(C)(=O)=O)c3)C[C@H]2c2ccc(F)cc2)nc1C(F)(F)F (stereo partly drawn) [12-9, 1-(2-((R)-4-(4-fluoro-3-(methylsulfonyl)phenyl)-2-(4-fluorophenyl)piperazin-1-yl)-4-(trifluoromethyl)pyrimidin-5-yl)ethan-1-ol] | 896 | 4884 (19) % | 4880 | 
CC(C)[C@@H]1CN(c2ccc(CN)c(S(C)(=O)=O)c2)CCN1c1nccc(C(F)(F)F)n1 [15-11, (R)-(4-(3-isopropyl-4-(4-(trifluoromethyl)pyrimidin-2-yl)piperazin-1-yl)-2-(methylsulfonyl)phenyl)methanamine] | 2180 | 4307 (42) % | 4310 | 
CC(C)[C@@H]1CN(c2ccc(F)c(S(C)(=O)=O)c2)CCN1c1ncc(C(=O)N(C)C2CN(C(=O)OC(C)(C)C)C2)c(C(F)(F)F)n1 [17-22, tert-butyl (R)-3-(2-(4-(4-fluoro-3-(methylsulfonyl)phenyl)-2-isopropylpiperazin-1-yl)-N-methyl-4-(trifluoromethyl)pyrimidine-5-carboxamido)azetidine-1-carboxylate] | 670 |  |  | EC50 [1]: > 20000 nM; EC50 [2]: > 20000 nM
CC(C)[C@H]1CN(c2ccc(CO)c(S(C)(=O)=O)c2)CCN1Cc1ccc(C(F)(F)F)c(F)c1 [47-3, (S)-(4-(4-(3-fluoro-4-(trifluoromethyl)benzyl)-3-isopropylpiperazin-1-yl)-2-(methylsulfonyl)phenyl)methanol] | 422 | 1280 (60) % | 1280 | 
CC(C)[C@H]1CN(c2cccc(S(C)(=O)=O)c2)CCN1CC1CCC(C)(C)CC1 [48-2, (S)-1-((4,4-dimethylcyclohexyl)methyl)-2-isopropyl-4-(3-(methylsulfonyl)phenyl)piperazine] | 81 | 175 (81) % |  | EC50 ([1]; read-out: Cell LXRα EC50): 175 nM
CC(C)[C@H]1CN(c2ccc(CO)c(S(C)(=O)=O)c2)CCN1CC1CCN(CC(F)(F)F)CC1 [48-50, (S)-(4-(3-isopropyl-4-((1-(2,2,2-trifluoroethyl)piperidin-4-yl)methyl)piperazin-1-yl)-2-(methylsulfonyl)phenyl)methanol] |  | 386 (77) % |  | Ki (LXR α LBD protein; Biological Test Example 1): 587 nM; EC50 [1, 4]: 386 nM
CS(=O)(=O)c1cccc(N2CCN(CC3CCC(C(F)(F)F)O3)[C@@H](c3ccc(F)cc3)C2)c1 (stereo partly drawn) [48-73, (2S)-2-(4-fluorophenyl)-4-(3-(methylsulfonyl)phenyl)-1-((5-(trifluoromethyl)tetrahydrofuran-2-yl)methyl)piperazine] | 2250 |  |  | EC50 [1, 4]: > 20000 nM
CS(=O)(=O)c1cccc(N2CCN(CC3CCC(C(F)(F)F)O3)[C@@H](c3ccc(F)cc3)C2)c1 (stereo partly drawn) [48-74, (2S)-2-(4-fluorophenyl)-4-(3-(methylsulfonyl)phenyl)-1-((5-(trifluoromethyl)tetrahydrofuran-2-yl)methyl)piperazine] |  |  |  | Ki (LXR α LBD protein; Biological Test Example 1): 11400 nM; EC50 [1, 4]: > 20000 nM
CC(C)C1CN(c2ccc(C#N)c(S(C)(=O)=O)c2)CCN1CC1CCC(C(F)(F)F)CC1 [50-2, 4-((S)-3-isopropyl-4-(((1r,4S)-4-(trifluoromethyl)cyclohexyl)methyl)piperazin-1-yl)-2-(methylsulfonyl)benzonitrile] | 358 | 721 (72) % |  | EC50 ([1]; read-out: Cell LXRα EC50): 721 nM; Cell LXRβ efficacy [2, 5]: 542 (85) %
Cc1nc(N2CCN(c3ccc(F)c(S(C)(=O)=O)c3)C[C@H]2C(C)C)ncc1S(C)(=O)=O [Cpd No 3-3, (R)-2-(4-(4-fluoro-3-(methylsulfonyl)phenyl)-2-isopropylpiperazin-1-yl)-4-methyl-5-(methylsulfonyl)pyrimidine] | > 3330 | 9543 (37) % | 9540 | 
CC(C)[C@@H]1CN(c2ccc(F)c(S(N)(=O)=O)c2)CCN1c1ccc(C(F)(F)F)cn1 [Cpd No 18-1, (R)-2-fluoro-5-(3-isopropyl-4-(5-(trifluoromethyl)pyridin-2-yl)piperazin-1-yl)benzenesulfonamide] | 73 | 591 (104) % | 591 | 
CC(C)[C@@H]1CN(c2ccc(F)c(S(C)(=O)=O)c2)CCN1c1ncc(C(F)(F)F)cc1N [Cpd No 21-1, (R)-2-(4-(4-fluoro-3-(methylsulfonyl)phenyl)-2-isopropylpiperazin-1-yl)-5-(trifluoromethyl)pyridin-3-amine] | 608 | 3767 (74) % |  | EC50 [1]: 3770 nM
CC(C)[C@@H]1CN(c2ccc(F)c(S(C)(=O)=O)c2)CCN1c1nc(C(F)(F)F)cc(=O)[nH]1 [Cpd No 24-1, (R)-2-(4-(4-fluoro-3-(methylsulfonyl)phenyl)-2-isopropylpiperazin-1-yl)-6-(trifluoromethyl)pyrimidin-4-ol] | > 3330 |  |  | EC50 ([1]; read-out: Cell LXRα EC50): > 20000 nM
CC(C)[C@@H]1CN(c2ccc(CO)c(S(C)(=O)=O)c2)CCN1c1ncc(C(C)(C)C#N)c(C(F)(F)F)n1 [Cpd No 25-1, (R)-2-(2-(4-(4-(hydroxymethyl)-3-(methylsulfonyl)phenyl)-2-isopropylpiperazin-1-yl)-4-(trifluoromethyl)pyrimidin-5-yl)-2-methylpropanenitrile] | 32 | 174 (44) % | 174 | 
CC(C)[C@@H]1CN(c2ccc(CO)c(S(C)(=O)=O)c2)CCN1c1nc(C(F)(F)F)c(C(C)(C)O)s1 [Cpd No 27-1, (R)-2-(2-(4-(4-(hydroxymethyl)-3-(methylsulfonyl)phenyl)-2-isopropylpiperazin-1-yl)-4-(trifluoromethyl)thiazol-5-yl)propan-2-ol] | 27 | 225 (97) % | 225 | 
COc1cnc(N2CCN(c3ccc(F)c(S(C)(=O)=O)c3)C[C@H]2C(C)C)nc1C(F)(F)F [Cpd No 29-1, (R)-2-(4-(4-fluoro-3-(methylsulfonyl)phenyl)-2-isopropylpiperazin-1-yl)-5-methoxy-4-(trifluoromethyl)pyrimidine] | 9 | 266 (104) % | 266 | 
CC(C)[C@@H]1CN(c2ccc(F)c(S(C)(=O)=O)c2)CCN1c1ncc(C(F)(F)F)c(Cl)n1 [Cpd No 36-1, (R)-4-chloro-2-(4-(4-fluoro-3-(methylsulfonyl)phenyl)-2-isopropylpiperazin-1-yl)-5-(trifluoromethyl)pyrimidine] | 30 | 305 (100) % |  | EC50 ([1]; read-out: Cell LXRα EC50): 305 nM
CC(O)c1nc(N2CCN(c3ccc(F)c(S(C)(=O)=O)c3)C[C@H]2C(C)C)ncc1C(F)(F)F (stereo partly drawn) [Cpd No 38-1, 1-(2-((R)-4-(4-fluoro-3-(methylsulfonyl)phenyl)-2-isopropylpiperazin-1-yl)-5-(trifluoromethyl)pyrimidin-4-yl)ethan-1-ol] | 67 | 165 (89) % | 165 | 
CC(C)[C@@H]1CN(c2ccc(F)c(S(C)(=O)=O)c2)CCN1c1ncc(C(F)(F)F)c(C#N)n1 [Cpd No 43-1, (R)-2-(4-(4-fluoro-3-(methylsulfonyl)phenyl)-2-isopropylpiperazin-1-yl)-5-(trifluoromethyl)pyrimidine-4-carbonitrile] | 26 | 136 (101) % |  | EC50 ([1]; read-out: Cell LXRα EC50): 136 nM
CC(=O)NCc1ccc(N2CCN(c3nccc(C(F)(F)F)n3)[C@H](C(C)C)C2)cc1S(C)(=O)=O [Cpd No 54-1, (R)-N-(4-(3-isopropyl-4-(4-(trifluoromethyl)pyrimidin-2-yl)piperazin-1-yl)-2-(methylsulfonyl)benzyl)acetamide] |  |  |  | Ki (LXR α LBD protein; Biological Test Example 1): 716 nM; Cell LXRα efficacy [1, 5]: 72%; EC50 [1, 4]: 2200 nM
